Data reported in patent EP0729957A1, “PYRIDINE COMPOUND AND MEDICINAL USE THEREOF” (YOSHITOMI PHARMACEUTICAL INDUSTRIES, LTD., priority 1993, dated 1995).
Where a name gives a salt, the structure may show the parent alone. Read-outs that look alike come from different tables or passages of the source.

What was measured:
gastric acid secretion = experiment: Action on gastric acid secretion of rats subjected to gastroperfusion (histamine-induced); type: in vivo; details: 3 mg/kg i.v., 5 minutes before histamine hydrochloride (1 mg/kg i.v.); urethane-anesthetized Wistar rats
Procedure: Experimental Example 2: Action on gastric acid secretion of rats subjected to gastroperfusion
The experiment was done according to the method of Ghosh et al, Br. J. Pharmacol. 13, p 54 (1958). Wistar rats were fasted for 20 hours and anesthetized with urethane (1.5 g/kg, subcutaneous). A polyethylene tube for injection and discharge for gastroperfusion was attached to the rats. Gastroperfusion was performed using physiological saline (37°C) at a speed of 7 ml/min and the perfusate was recovered at 10-min intervals. Histamine hydrochloride (1 mg/kg) was intravenously administered at 1-hr intervals to induce secretion of gastric acid. A test solution containing the test compound was intravenously administered 5 minutes before the histamine hydrochloride administration. The acidity of the gastric acid was titrated up to pH 7.0 with an automatic titrator and percent suppression of gastric acid secretion by the test compound was determined.

Helicobacter pylori = experiment: Antibacterial activity (in vitro) against Helicobacter pylori, agar dilution MIC; type: cell-based; details: clinical isolates (18 strains), agar plate, 37°C, 8% CO2, 3-4 days; for MIC50: minimum concentration necessary for inhibiting growth by 50%; for MIC90: minimum concentration necessary for inhibiting growth by 90%
[1] = Helicobacter pylori, read-out: MIC50
[2] = Helicobacter pylori, read-out: MIC90

Compound	Suppression (%) (gastric acid secretion)	MIC50 (Helicobacter pylori; [1]) [µg/mL]	MIC90 (Helicobacter pylori; [2]) [µg/mL]	other results
2-((3-methyl-4-(2-(2-methoxpolyethoxy)ethylthio)-2-pyridyl)methylsulfinyl)-1H-benzimidazole [Example 25]	100			
2-((3-methyl-4-(2-(2-methoxypolyethoxy)ethylthio)-2-pyridyl)methylthio)-1H-benzimidazole·hydrochloride [Example 22]				MIC50 (Helicobacter pylori): 0.025 µg/mL; MIC90 (Helicobacter pylori): 0.025 µg/mL
2-((3-methyl-4-(2-methoxypolyethoxy)-2-pyridyl) methylsulfinyl)-1H-benzimidazole [Example 26]	50			
COCCOCCSc1ccnc(CSc2nc3ccccc3[nH]2)c1C [Example 17, 2-((3-methyl-4-(2-(2-methoxyethoxy)ethylthio)-2-pyridyl)methylthio)-1H-benzimidazole·hydrochloride]		0.025	0.05	
COCCOCCOCCSc1ccnc(CSc2nc3ccccc3[nH]2)c1C [Example 21, 2-((3-methyl-4-(2-(2-(2-methoxyethoxy)ethoxy)ethylthio)-2-pyridyl)methylthio)-1H-benzimidazole·hydrochloride]		0.012	0.025	
